Laboratory results from patent US20050233973A1, “Tri-peptides for antidepressant applications” (priority 1997, published 2005).
Like-named read-outs stand apart in the source and are kept apart here. Non-standard residues stand in square brackets, D forms with d. Residues, ends and D or L forms follow the SMILES beside them. pGlu = O=C1CC[C@@H](C(=O)O)N1

Legend:
[1] = tested on: Porsolt forced swim animal model of depression; assay: Porsolt swim test; format: in vivo, rats
Description: Total immobility time versus swim time was recorded. Both high-dose (0.5 mg/kg sc) and low-dose injections (0.05 mg/kg ip) were used.

[2] = Serum T3 and T4 levels in Porsolt test animals; format: in vivo, rats; details: for T3 level: 0.5 mg/kg (sc); for change in T3: animals of the Porsolt test; for effect upon T3 or T4 levels: at the dosage used
Description: A Porsolt swim test with rats was used to examine the antidepressant effects of peptides where R^2=Glu or R^2=Phe, as set forth in Lloyd, R. L. et al., Pharamcology, Biochemistry and Behavior, 70:15-22 (2001), incorporated herein by reference. […] No effect of the blocking variable or interaction of the blocking variable with treatment was found.
Using the animal models of Example 11, T3 (triiodothyronine) and T4 (thyroxine) levels were tested. Serum T3 was determined by […], using fluorescence polarization of a fixed concentration of a fluorescent analog of T3 as provided in the Abbott IMX System. T4 was also determined by radioimmunoassay. With EEP, no changes in T3 were observed. […] With ELP (where R^2 is Leu) and EFP there was an increase in T3, but this was not correlated to swim scores, with ELP not producing a behavioral effect, and EFP producing a marginal behavioral effect.

[3] = tested on: pentobarbital-anesthetized rats; format: in vivo, male Wistar rats; details: for reduction in pentobarbitol-induced sleep time (analeptic effect): IC injection of 10 μg
Description: Twenty minutes after loss of the righting reflex, 10 μL of either sterile saline or peptide of this invention (1 or 10 μg/10 μL sterile saline) was administered by intracisternal (IC) injection. The time from IC injection to recovery of the righting reflex, as measured three times within 10 seconds, was recorded.

[4] = Brain tissue analysis of TRH and EEP after peptide injection; format: in vivo, rats; details: 0.5 mg/kg (sc)
[5] = tested on: 465B12 antibody (raised to TRH)
[6] = tested on: CR-V3-B53 antibody (raised to TRH)
[7] = tested on: EEP (R^2=Glu) antibody (580B6)
TRH receptor-1 (TRHR-1) [8] = biological target: T1, TRH receptor-1 (TRHR-1) (Mus musculus, UniProt P21761); assay: [3H]TRH competition binding, HEK293 cells expressing TRHR-1
T1 sequence (P21761 1-393): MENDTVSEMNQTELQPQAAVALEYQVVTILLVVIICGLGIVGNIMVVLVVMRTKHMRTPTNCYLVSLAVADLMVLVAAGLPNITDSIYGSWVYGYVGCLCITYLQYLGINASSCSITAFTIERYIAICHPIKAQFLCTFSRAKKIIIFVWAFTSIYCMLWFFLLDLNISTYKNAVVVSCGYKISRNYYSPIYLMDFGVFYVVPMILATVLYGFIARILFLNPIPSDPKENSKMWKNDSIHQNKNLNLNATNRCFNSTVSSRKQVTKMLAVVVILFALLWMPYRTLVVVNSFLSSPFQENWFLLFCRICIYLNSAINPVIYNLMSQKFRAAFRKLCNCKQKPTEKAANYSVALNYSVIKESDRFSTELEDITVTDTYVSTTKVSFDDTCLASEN

TRH receptor-2 (TRHR-2) [9] = biological target: T2, TRH receptor-2 (TRHR-2) (Rattus norvegicus, UniProt A6IZR3); assay: [3H]TRH competition binding, HEK293 cells expressing TRHR-2
T2 sequence (A6IZR3 1-352): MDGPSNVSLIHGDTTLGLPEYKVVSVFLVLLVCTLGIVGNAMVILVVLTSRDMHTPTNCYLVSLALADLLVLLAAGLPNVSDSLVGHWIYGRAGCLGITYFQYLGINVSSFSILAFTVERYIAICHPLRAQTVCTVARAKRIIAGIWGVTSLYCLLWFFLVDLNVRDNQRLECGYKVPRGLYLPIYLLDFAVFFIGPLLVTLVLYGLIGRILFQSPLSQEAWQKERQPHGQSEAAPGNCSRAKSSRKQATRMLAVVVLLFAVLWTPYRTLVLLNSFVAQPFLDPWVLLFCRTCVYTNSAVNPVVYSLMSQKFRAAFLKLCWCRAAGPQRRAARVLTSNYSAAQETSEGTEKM

TRH receptor-1 (TRHR-1) [10] = assay: competition with 2 nM [^3H]TRH on HEK293 cells expressing TRHR-1
TRH receptor-2 (TRHR-2) [11] = assay: competition with 2 nM [^3H]TRH on HEK293 cells expressing TRHR-2
control HEK293 cells = assay: Intracellular calcium response (fura2), non-transfected control cells; format: cell-based; details: Ca2+-free buffer
Description: The ability of peptides of the formula pGlu-[…] to stimulate an intracellular calcium response in transfected HEK293 of Example 5 was evaluated, to determine whether the peptides behave as agonists. […] The coverslip was then rinsed and placed in a Sykes-Moore chamber covered with 1 mL Ca^2+ and Mg^2+ free HBSS. Imaging was performed on a Nikon inverted microscope with a DAGE CCD72 camera and […] intensifier system. Cells were alternately excited at 340 and 380 nm and emission was measured at 490 nm; 340/380 ratios were obtained every 1.2 seconds and analyzed using Image-1 software from Universal Imaging Corporation. […] Peak responses from between 33 and 120 individual cells were averaged, and responses to TRH were measured with each set of cells as a standard. Most of the peptides caused a small increase in intracellular Ca^2+ when added to control HEK293 cells bathed in Ca^2+-containing medium, but with the exception of the R^2=Leu peptide, none of them evoked an appreciable Ca^2+ response in Ca^2+-free HBSS, which was used for all experiments.

[12] = biological target: T3, HEK293 cells expressing TRHR-1 (Mus musculus, UniProt P21761); assay: Intracellular calcium response (fura2), TRHR-1 cells; format: cell-based
T3 construct: expressed in transfected cells
T3 sequence (P21761 1-393): T1 sequence (P21761 1-393)

[13] = biological target: T4, HEK293 cells expressing TRHR-2 (Rattus norvegicus, UniProt A6IZR3); assay: Intracellular calcium response (fura2), TRHR-2 cells; format: cell-based
T4 sequence (A6IZR3 1-352): T2 sequence (A6IZR3 1-352)

[14] = high-dose (0.5 mg/kg sc), three injections
[15] = low-dose (0.05 mg/kg ip), three injections
[16] = tracer 125I-TRH, assay standard = 1.00

Compound: NC(=O)[C@@H]1CCCN1C(=O)[C@H](CCC(=O)O)NC(=O)[C@@H]1CCC(=O)N1 [R^2 = Glu, pGlu-Glu-Pro-NH2] ([pGlu]-Glu-Pro-NH2)
- mean immobility time ([1]; 0.05 mg/kg (ip)): 121 s
- mean immobility time ([1]; 0.5 mg/kg (sc)): 58 s
- antidepressant effect compared to saline (total immobility time) [1, 14]: effective
- antidepressant effect compared to saline (total immobility time) [1, 15]: effective
- T3 level ([2]; R^2=Glu experiment, no significant difference to saline): 0.66 ng/mL
- T3 level ([2]; R^2=Phe experiment, significant increase vs controls (P<0.028, one-tailed)): 0.85 ng/mL
- change in T3 [2]: no changes
- effect upon T3 or T4 levels [2]: No effect
- reduction in pentobarbitol-induced sleep time (analeptic effect) [3]: had an analeptic effect
- "wet dog" shaking while still anesthetized ([3]; rat, in vivo): never produced shaking
- changes in TRH or EEP in brain regions (tissue analysis) [4]: failed to find any changes
- relative potency for displacement of assay tracer [5, 16]: 0.02
- relative potency for displacement of assay tracer [6, 16]: 0.0092
- relative potency for displacement of assay tracer [7, 16]: 1.00
- IC50 (TRH receptor-1 (TRHR-1) [8]): > 282 µM
- IC50 (TRH receptor-2 (TRHR-2) [9]): > 282 µM

Compound: NC(=O)[C@@H]1CCCN1C(=O)[C@H](Cc1ccc(O)cc1)NC(=O)[C@@H]1CCC(=O)N1 [R^2 = Tyr, pGlu-Tyr-Pro-NH2] ([pGlu]-Tyr-Pro-NH2)
- antidepressant effect compared to saline (total immobility time) [1, 15]: effective
- effect upon T3 or T4 levels [2]: No effect
- relative potency for displacement of assay tracer [5, 16]: 9.85
- relative potency for displacement of assay tracer [6, 16]: 3.83
- relative potency for displacement of assay tracer [7, 16]: 5.06
- IC50 (TRH receptor-1 (TRHR-1) [8]): > 257 µM
- IC50 (TRH receptor-2 (TRHR-2) [9]): > 257 µM

Compound: [pGlu]-Glu-Pro-NH2
- IC50 (TRH receptor-1 (TRHR-1) [10]): > 100 µg/mL
- IC50 (TRH receptor-2 (TRHR-2) [11]): > 100 µg/mL

Compound: pGlu-His-Pro-NH2, thyrotropin releasing hormone (TRH) (peptide)
- IC50 (TRH receptor-1 (TRHR-1) [10]): 0.0085 µg/mL
- IC50 (TRH receptor-2 (TRHR-2) [11]): 0.0088 µg/mL

Compound: NC(=O)CC[C@H](NC(=O)[C@@H]1CCC(=O)N1)C(=O)N1CCC[C@H]1C(N)=O [R^2 = Gln, reference compound] ([pGlu]-Gln-Pro-NH2)
- relative potency for displacement of assay tracer [5]: 0.0225
- relative potency for displacement of assay tracer [6]: 0.0055
- relative potency for displacement of assay tracer [7]: 1.00
- IC50 (TRH receptor-1 (TRHR-1) [8]): 27.7 µM
- IC50 (TRH receptor-2 (TRHR-2) [9]): 21.4 µM

Compound: [pGlu]-Phe-Pro-NH2
- IC50 (TRH receptor-1 (TRHR-1) [10]): 1.58 µg/mL
- IC50 (TRH receptor-2 (TRHR-2) [11]): 1.25 µg/mL

Compound: CC(C)C[C@H](NC(=O)[C@@H]1CCC(=O)N1)C(=O)N1CCC[C@H]1C(N)=O [R^2 = Leu, pGlu-Leu-Pro-NH2] ([pGlu]-Leu-Pro-NH2)
- antidepressant effect compared to saline (total immobility time) ([1]; dose not stated): statistically meaningful behavioral effects were not observed
- change in T3 [2]: increase
- Ca2+ response (control HEK293 cells): small Ca^2+ transient
- ability to block the Ca2+ response to low concentrations of TRH (antagonism) [12]: no effect was found
- ability to block the Ca2+ response to low concentrations of TRH (antagonism) [13]: no effect was found
- reduction in pentobarbitol-induced sleep time (analeptic effect) [3]: had an analeptic effect
- relative potency for displacement of assay tracer [5, 16]: 0.301
- relative potency for displacement of assay tracer [6, 16]: 0.088
- relative potency for displacement of assay tracer [7, 16]: 5.00
- IC50 (TRH receptor-1 (TRHR-1) [8]): 5.47 µM
- IC50 (TRH receptor-2 (TRHR-2) [9]): 1.95 µM

Compound: NC(=O)[C@@H]1CCCN1C(=O)[C@H](Cc1ccccc1)NC(=O)[C@@H]1CCC(=O)N1 [R^2 = Phe, pGlu-Phe-Pro-NH2] ([pGlu]-Phe-Pro-NH2)
- mean immobility time ([1]; 0.5 mg/kg (sc)): 125 s
- antidepressant effect compared to saline (total immobility time) [1, 14]: effective
- change in T3 [2]: increase
- changes in TRH or EEP in brain regions (tissue analysis) [4]: failed to find any changes
- IC50 (TRH receptor-2 (TRHR-2) [9]): 3.36 µM

Compound: CC(C)[C@H](NC(=O)[C@@H]1CCC(=O)N1)C(=O)N1CCC[C@H]1C(N)=O [R^2 = Val, pGlu-Val-Pro-NH2] ([pGlu]-Val-Pro-NH2)
- antidepressant effect compared to saline (total immobility time) ([1]; dose not stated): statistically meaningful behavioral effects were not observed
- effect upon T3 or T4 levels [2]: No effect
- reduction in pentobarbitol-induced sleep time (analeptic effect) [3]: had an analeptic effect
- relative potency for displacement of assay tracer [5, 16]: 0.161
- relative potency for displacement of assay tracer [6, 16]: 0.087
- relative potency for displacement of assay tracer [7, 16]: 9.24
- IC50 (TRH receptor-1 (TRHR-1) [8]): > 308 µM
- IC50 (TRH receptor-2 (TRHR-2) [9]): > 308 µM

Compound: [pGlu]-Arg-Pro-NH2
- IC50 (TRH receptor-1 (TRHR-1) [10]): > 100 µg/mL
- IC50 (TRH receptor-2 (TRHR-2) [11]): > 100 µg/mL

Compound: [pGlu]-Leu-Pro-NH2
- IC50 (TRH receptor-1 (TRHR-1) [10]): 1.85 µg/mL
- IC50 (TRH receptor-2 (TRHR-2) [11]): 0.66 µg/mL
